The record followed here is US20110021565A1, “PIPERIDINE DERIVATIVES AS NK3 ANTAGONISTS” (priority 2007, published 2011).

Read-outs that look alike come from different tables or passages of the source.

The target of the assay is T1, recombinant human NK3 receptor (Homo sapiens, UniProt P29371).
T1 construct: expressed in transfected cells; host or cells: HEK293 cells, transient expression; membrane preparation
T1 sequence (P29371 1-465): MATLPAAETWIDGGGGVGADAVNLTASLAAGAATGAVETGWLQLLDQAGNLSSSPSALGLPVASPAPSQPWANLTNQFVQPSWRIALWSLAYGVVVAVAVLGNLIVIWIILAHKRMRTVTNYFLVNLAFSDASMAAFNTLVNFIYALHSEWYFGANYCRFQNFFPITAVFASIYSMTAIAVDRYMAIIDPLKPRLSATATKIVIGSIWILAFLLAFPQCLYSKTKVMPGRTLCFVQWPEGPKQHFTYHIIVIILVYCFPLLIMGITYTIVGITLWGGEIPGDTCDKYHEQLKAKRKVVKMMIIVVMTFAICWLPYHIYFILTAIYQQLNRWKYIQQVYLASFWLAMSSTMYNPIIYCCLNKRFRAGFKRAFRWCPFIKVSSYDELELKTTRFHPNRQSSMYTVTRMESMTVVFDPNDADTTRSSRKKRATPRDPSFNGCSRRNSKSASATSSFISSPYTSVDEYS
In words: [3H]SR142801 competition binding assay. Here is the method:
[^3H]SR142801 Competition Binding Assay
hNK3 receptor binding experiment were performed using [^3H]SR142801 (Catalog No. TRK1035, specific activity: 74.0 Ci/mmol, Amersham, GE Healthcare UK limited, Buckinghamshire, UK) and membrane isolated from HEK293 cells transiently expressing recombinant human NK3 receptor. After thawing, the membrane homogenates were centrifuged at 48,000×g for 10 min at 4° C., the pellets were resuspended in the 50 mM Tris-HCl, 4 mM MnCl2, 1 μM phosphoramidon, 0.1% BSA binding buffer at pH 7.4 to a final assay concentration of 5 μg protein/well. For inhibition experiments, membranes were incubated with [^3H]SR142801 at a concentration equal to KD value of radioligand and 10 concentrations of the inhibitory compound (0.0003-10 μM) (in a total reaction volume of 500 μl) for 75 min at room temperature (RT). At the end of the incubation, membranes were filtered onto unitfilter (96-well white microplate with bonded GF/C filter preincubated 1 h in 0.3% PEI+0.3% BSA, Packard BioScience, Meriden, Conn.) with a Filtermate 196 harvester (Packard BioScience) and washed 4 times with ice-cold 50 mM Tris-HCl, pH 7.4 buffer. Nonspecific binding was measured in the presence of 10 μM SB222200 for both radioligands. The radioactivity on the filter was counted (5 min) on a Packard Top-count microplate scintillation counter with quenching correction after addition of 45 μl of microscint 40 (Canberra Packard S. A., Zurich, Switzerland) and shaking for 1 h. Inhibition curves were fitted according to the Hill equation: y=100/(1+(x/IC50)^nH), where nH=slope factor using Excel-fit 4 software ([…]). IC50 values were derived from the inhibition curve and the affinity constant (IQ values were calculated using the Cheng-Prussoff equation Ki=IC50/(1+[L]/KD) where [L] is the concentration of radioligand and KD is its dissociation constant at the receptor, derived from the saturation isotherm. All experiments were performed in duplicate and the mean±standard error (SEM) of the individual Ki values was calculated.

The mark [1] stands for this setting: [3H]SR142801, membranes of HEK293 cells transiently expressing recombinant human NK3 receptor, read-out: hNK3 Ki.
Where [2] appears, read: representative compounds, [3H]SR142801, HEK293 membranes, human NK3 receptor, read-out: Ki NK3 h.

The term Ki denotes a dissociation constant, usually derived from enzyme kinetics or from competition with a known ligand.

As for `COCCN(C(C)=O)C1CCN(CCC(C)(C(=O)N[C@@H](CO)c2ccc(Cl)c(Cl)c2)c2ccc(Cl)c(Cl)c2)CC1` (stereo partly drawn) [Example 148, 4-{4-[Acetyl-(2-methoxy-ethyl)-amino]-piperidin-1-yl}-2-(3,4-dichloro-phenyl)-N-[1-(3,4-dichloro-phenyl)-2-hydroxy-ethyl]-2-methyl-butyramide (diastreoisomer 1)], the Ki under setting [1] is 3.8 nM and the Ki under setting [2] was determined as 3.8 nM.

Take `CC(=O)N(C)C1CCN(CCC(C)(C(=O)N[C@@H](CO)c2ccc(Cl)c(Cl)c2)c2ccc(Cl)c(Cl)c2)CC1` (single isomer, unassigned; diastereoisomer 1) [Example 109, 4-[4-(Acetyl-methyl-amino)-piperidin-1-yl]-2-(3,4-dichloro-phenyl)-N-[1-(3,4-dichloro-phenyl)-2-hydroxy-ethyl]-2-methyl-butyramide; diastereoisomer 1]: the Ki by setting is: under setting [1], 5.6 nM; under setting [2], 5.6 nM. As to `CC[C@H](NC(=O)C(C)(CCN1CCC(N(CC)C(C)=O)CC1)c1ccc(Cl)c(Cl)c1)c1ccccc1` (stereo partly drawn) [Example 168, 4-[4-(Acetyl-ethyl-amino)-piperidin-1-yl]-2-(3,4-dichloro-phenyl)-2-methyl-N-((S)-1-phenyl-propyl)-butyramide], the Ki is, setting by setting: under setting [1], 3 nM; under setting [2], 3 nM.

As to `CC(CCN1CCC(N2CCCC2=O)CC1)(C(=O)NCc1ccc(Cl)c(Cl)c1)c1ccc(Cl)c(Cl)c1` (centres unmarked) [Example 83, N-(3,4-Dichloro-benzyl)-2-(3,4-dichloro-phenyl)-2-methyl-4-[4-(2-oxo-pyrrolidin-1-yl)-piperidin-1-yl]-butyramide], the Ki by setting is: under setting [1], 2.3 nM; under setting [2], 2.3 nM.

For `CCN(C1CCN(CCC(C)(C(=O)N(C)Cc2ccc(Cl)c(Cl)c2)c2ccc(Cl)c(Cl)c2)CC1)S(C)(=O)=O` (centres unmarked) [Example 70, N-(3,4-Dichloro-benzyl)-2-(3,4-dichloro-phenyl)-4-[4-(ethyl-methanesulfonyl-amino)-piperidin-1-yl]-2,N-dimethyl-butyramide], the Ki worked out at 1.2 nM under setting [1] and 1.2 nM under setting [2]. Consider `CN(Cc1ccc(F)c(C(F)(F)F)c1)C(=O)C(C)(CCN1CCC(NS(C)(=O)=O)CC1)c1ccc(Cl)c(Cl)c1` (centres unmarked) [Example 3, 2-(3,4-Dichloro-phenyl)-N-(4-fluoro-3-trifluoromethyl-benzyl)-4-(4-methanesulfonyl-amino-piperidin-1-yl)-2,N-dimethyl-butyramide], for which the Ki under setting [1] was found to be 23.2 nM. As for `CN(Cc1ccc(Cl)c(C(F)(F)F)c1)C(=O)C(C)(CCN1CCC(N(C)S(C)(=O)=O)CC1)c1ccc(Cl)c(Cl)c1` (centres unmarked) [Example 46, N-(4-Chloro-3-trifluoromethyl-benzyl)-2-(3,4-dichloro-phenyl)-4-[4-(methanesulfonyl-methyl-amino)-piperidin-1-yl]-2,N-dimethyl-butyramide], the Ki is, setting by setting: under setting [1], 2.4 nM; under setting [2], 2.4 nM. For the compound `CN(Cc1ccc(C(F)(F)F)c(F)c1)C(=O)C(C)(CCN1CCC(NS(C)(=O)=O)CC1)c1ccc(Cl)c(Cl)c1` (single isomer, unassigned) [Example 124, (R or S)-2-(3,4-Dichloro-phenyl)-N-(3-fluoro-4-trifluoromethyl-benzyl)-4-(4-methanesulfonylamino-piperidin-1-yl)-2,N-dimethyl-butyramide], the Ki under setting [1] was 18.8 nM. In the case of `CN(Cc1ccc(C(F)(F)F)cc1)C(=O)C(C)(CCN1CCC(N2CCCC2=O)CC1)c1ccc(Cl)c(Cl)c1` (centres unmarked) [Example 88, 2-(3,4-Dichloro-phenyl)-2,N-dimethyl-4-[4-(2-oxo-pyrrolidin-1-yl)-piperidin-1-yl]-N-(4-trifluoromethyl-benzyl)-butyramide], the Ki runs as follows: under setting [1], 1.8 nM; under setting [2], 1.8 nM. For `CC(=O)NC1CCN(CCC(C)(C(=O)N[C@@H](CO)c2ccc(F)cc2)c2ccc(Cl)c(Cl)c2)CC1` (stereo partly drawn) [Example 160, 4-(4-Acetylamino-piperidin-1-yl)-2-(3,4-dichloro-phenyl)-N-[(R)-1-(4-fluoro-phenyl)-2-hydroxy-ethyl]-2-methyl-butyramide], the Ki under setting [1] worked out at 200 nM. Still for that read-out and setting: with `Cc1ccc(CN(C)C(=O)C(CCN2CCC(NS(C)(=O)=O)CC2)c2ccc(Cl)c(Cl)c2)cc1` (centres unmarked) [Example 38, 2-(3,4-Dichloro-phenyl)-4-(4-methanesulfonyl-amino-piperidin-1-yl)-N-methyl-N-(4-methyl-benzyl)-butyramide] the figure was 92.9 nM; with `COCCN(C(C)=O)C1CCN(CCC(C)(C(=O)N[C@@H](CO)c2ccc(Cl)cc2)c2ccc(Cl)c(Cl)c2)CC1` (stereo in doubt) [Example 147, 4-{4-[Acetyl-(2-methoxy-ethyl)-amino]-piperidin-1-yl}-N-[1-(4-chloro-phenyl)-2-hydroxy-ethyl]-2-(3,4-dichloro-phenyl)-2-methyl-butyramide], 382 nM. Consider `C[C@](CCN1CCC(N2CCCC2=O)CC1)(C(=O)N[C@H](CO)c1ccc(Cl)c(Cl)c1)c1ccc(Cl)c(Cl)c1` (single isomer, unassigned) [Example 120, (R or S)-2-(3,4-Dichloro-phenyl)-N-[(S or R)-1-(3,4-dichloro-phenyl)-2-hydroxy-ethyl]-2-methyl-4-[4-(2-oxo-pyrrolidin-1-yl)-piperidin-1-yl]-butyramide], for which the Ki runs as follows: under setting [1], 2 nM; under setting [2], 2 nM. As to `CC(=O)N(C)C1CCN(CCC(C)(C(=O)N(C)Cc2ccc(Cl)c(C(F)(F)F)c2)c2ccc(Cl)c(Cl)c2)CC1` (centres unmarked) [Example 103, 4-[4-(Acetyl-methyl-amino)-piperidin-1-yl]-N-(4-chloro-3-trifluoromethyl-benzyl)-2-(3,4-dichloro-phenyl)-2,N-dimethyl-butyramide], the inhibition constant (Ki) was found to be 2.2 nM under setting [1] and 2.2 nM under setting [2]. As to `CN(Cc1ccc(F)c(C(F)(F)F)c1)C(=O)C(C)(CCN1CCC(N2CCCC2=O)CC1)c1ccc(Cl)c(Cl)c1` (centres unmarked) [Example 86, 2-(3,4-Dichlorophenyl)-N-(4-fluoro-3-trifluoromethyl-benzyl)-2,N-dimethyl-4-[4-(2-oxo-pyrrolidin-1-yl)-piperidin-1-yl]-butyramide], the Ki by setting is: under setting [1], 1.4 nM; under setting [2], 1.4 nM.

Turning to `CCCN(C(C)=O)C1CCN(CCC(C)(C(=O)N[C@H](CC)c2ccccc2)c2ccc(Cl)c(Cl)c2)CC1` (stereo partly drawn) [Example 165, 4-[4-(Acetyl-propyl-amino)-piperidin-1-yl]-2-(3,4-dichloro-phenyl)-2-methyl-N-((R)-1-phenyl-propyl)-butyramide], the Ki under setting [1] was 14.5 nM. In the case of `CC(=O)N(C)C1CCN(CCC(C)(C(=O)N[C@@H](CO)c2ccc(Cl)cc2)c2ccc(Cl)c(Cl)c2)CC1` (stereo partly drawn) [Example 136, 4-[4-(Acetyl-methyl-amino)-piperidin-1-yl]-N-[1-(4-chloro-phenyl)-2-hydroxy-ethyl]-2-(3,4-dichloro-phenyl)-2-methyl-butyramide (diastereosisomer 1)], the Ki runs as follows: under setting [1], 9.6 nM; under setting [2], 9.6 nM. As for `CC(CCN1CCC(N2CCCC2=O)CC1)(C(=O)NC1(c2ccccc2)CC1)c1ccc(Cl)c(Cl)c1` (centres unmarked) [Example 93, 2-(3,4-Dichlorophenyl)-2-methyl-4-[4-(2-oxo-pyrrolidin-1-yl)-piperidin-1-yl]-N-(1-phenyl-cyclopropyl)-butyramide], the Ki under setting [1] turned out to be 184 nM.
